# Experimental data published in patent US4762706A, “Peptide antibodies and their use in detecting oncogene products” (priority 1984, dated 1988).
# Target: T1, v-Ki-ras p21 protein (serine at position 12) (Kirsten murine sarcoma virus, UniProt P01117)
# T1 construct: made in house; host or cells: E. coli (plasmid pINIII-ras, a gift; lac promoter, IPTG induction)
# Test: Inhibition by nucleotide of anti-p21ser antibody binding to p21 protein (immunoprecipitation under mild denaturation conditions)
# Settings: high concentrations (10 mM) of nucleotide
# Text: In this example the antibody was used to immunoprecipitate a form of p21 protein which is known to contain serine at position 12. This protein is a E. coli expressing v-Ki-ras p21 protein (produced using a plasmid pINIII-ras which was constructed by and was a gift from M. Inouge of SUNY at Stony Brook, New York in which transcription was directed by the lac promoter--see Masui, Y. et al., in Experimental Manipulation of Gene Expression, M. Inogue, ed., Academic Press, N.Y., pp 15-32 (1983). Expression of this protein was induced by treatment of the cultures with 2 mM isopropylthiogalactoside (IPTG). Cell pellets were resuspended in 50 mM glucose, 25 mM Tris.HCl pH 8.0, 10 mM EDTA, 2 mg/ml lysozyme, and 0.01% aprotinin, and were then incubated for 30 minutes at 4° C. Triton X-100 was added to 1% concentration for 5 additional minutes. Following a 10-minute 15,000 xg spin, the supernatant was spun for an additional 2 hours at 150,000 xg to prepare the cleared lysate. One hundred-μl samples of the cleared cell lysate were incubated with 40 μCi ^32 P gamma-labeled guanosine triphosphate (GTP) for 30 minutes at 37° C. […] Immune complexes were washed with 0.5% NP40, 1M LiCl, 50 mM Tris.HCl, pH 8.0, 120 mM NaCl, and analyzed by SDS-PAGE. […]
# T1 sequence (P01117 whole entry): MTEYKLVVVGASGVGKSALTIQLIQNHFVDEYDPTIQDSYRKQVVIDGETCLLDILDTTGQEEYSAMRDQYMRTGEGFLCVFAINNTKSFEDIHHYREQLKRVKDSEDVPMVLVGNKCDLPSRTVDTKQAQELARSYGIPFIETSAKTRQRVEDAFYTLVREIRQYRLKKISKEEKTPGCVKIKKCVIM
smiles,measurement,value
"Nc1nc2c(ncn2[C@@H]2O[C@H](COP(=O)(O)OP(=O)(O)OP(=O)(O)O)[C@@H](O)[C@H]2O)c(=O)[nH]1 [GTP, guanosine triphosphate]",inhibition of the binding of anti-p21ser antibodies to p21 protein,substantially inhibit
